This note sets out measurements from EP0105106A2, “Anti-bacterial composition” (DAITO KOEKI KABUSHIKI KAISHA, priority 1982, dated 1984).

One test has as its system Escherichia coli NIHJ. The experiment in a line: Survival of mice infected with Escherichia coli. Format: in vivo, ICR mice (male). The following applies: in 28 hours; dosage of SMX of 5 or 10 mg in two hours after the infection. The source says: A strain of Escherichia coli NIHJ is floated in physiologic saline, and a mixture solution containing the strain of Escherichia coli NINJ and 4% mucin, being equal in absorbance to each other is produced. ICR mice (male) were fed with […] this mixture solution containing the bacteria. As the result, all examples of the mice infected with the strain of Escherichia coli (intra Peritoneal administration of 5 ~ 10 times LDso in mice) died in twelve hours (The first contrast group). Subsequently, 80 m 90% of the group of mice on the dosage of SMX of 5 or 10 mg in two hours after the infection were still alive in 24 hours. The rate of survival of the group of mice decreased to 10 ~ 20% in 28 hours.

Test [1] has as its system Staphylococcus aureus 209P. As to the kind of experiment: Anti-bacterial test, Chequer board method. The test is classed as cell-based. The protocol: Tests for anti-bacterial properties were conducted on compositions of the sample of chitosan and SMX, mixed according to the mixing ratios shown in Tables 1 through 3, respectively.
As strains to be tested, there are used Staphylococcus aureus 209P (a typical example of Gram positive bacteria), Escherichia coli NIHJ (a typical example of Gram negative bacteria) and Pseudomonas aeruginosa 3456.
The combined effects obtained by the present tests were determined in accordance with the Chequer board method with reference to the knowledges of Bushby et al (Bushby, S.R.M. & G.H. Hitchings: Trimethoprim. a sulfonamide potentiator. Brit. J. pharm. Chemother 33: 72 ~ 90, 1968) and Bohni et al (Bohni. E: Vergleichende bakteriologishe Untersuchungen mit der Kombination Trimethoprim/Sulfamethoxazol in vitro und in vivo. Chemotherapy. Suppl ad. 14: 1 21, 1969), both of whom reporting the combined effect between sulfamethoxazole (SMX) and trimethoprim (TMP), both of which are noted on the market at present. The results of the tests are shown in Table 1 through 3, respectively.

For `Cc1cc(NS(=O)(=O)c2ccc(N)cc2)no1` [SMX, sulfamethoxazol], the rate of survival in the test with Escherichia coli NIHJ is on record as 10 ~ 20%. Further, in test [1] (Staphylococcus aureus, 209P, SMX solely used, in a test tube, read-out: minimum inhibition concentration (MIC) of SMX), the MIC worked out at 50 µg/mL. For the same molecule, in test [1] (chitosan added at a rate of 2.5 µg/mℓ), the “MIC of SMX” value stood at 3.1 µg/mL. In addition, in test [1] (chitosan added at a rate of 2.5 µg/mℓ, versus SMX solely used), the “anti-bacterial action is increased” value was “about 16 times SMX”.
